Structures are written as SMILES.

The record followed here is ChEMBL document CHEMBL4002554, “Terpenoids from Melampodium perfoliatum” (2016).

One experiment deals with Mus musculus. Kind of experiment: Anti-inflammatory activity in TPA-induced CD1 mouse ear acute inflammation model assessed as reduction in TPA-induced ear edema at 1 mg/ear administered topically 10 mins prior to TPA challenge measured after 4 hrs relative to control. The experiment is classed as functional.
As to `CC1(C)[C@H]2CC[C@@]34C[C@@H](CC[C@H]3[C@]2(C)CC[C@@H]1O)[C@@](O)(CO)C4`, the “inhibition (INH)” value was <50%.

In the case of `C=C1C(=O)O[C@@H]2/C=C(\C)[C@@H]3O[C@@H]3/C=C(/C(=O)OC)[C@H](OC(=O)[C@]3(C)O[C@@H]3C)[C@@H](OC(=O)[C@]3(C)O[C@@H]3C)[C@@H]12`, the “inhibition (INH)” value is <50%.

Take `C=C1C(=O)O[C@H]2[C@H]1[C@H](OC(=O)[C@]1(C)O[C@@H]1C)[C@@H](OC(=O)[C@]1(C)O[C@@H]1C)/C(C(=O)OC)=C\CC[C@@]1(C)O[C@H]21`: the “inhibition (INH)” value is reported as <50%.

The next experiment relates to Mus musculus. Briefly: Anti-inflammatory activity in TPA-induced CD1 mouse ear acute inflammation model assessed as reduction in TPA-induced ear edema administered topically 10 mins prior to TPA challenge measured after 4 hrs. Format: functional.
As to `C=C1C(=O)O[C@@H]2/C=C(\C)[C@@H]3O[C@@H]3/C=C(/C(=O)OC)[C@H](O)[C@@H](OC(=O)[C@]3(C)O[C@@H]3C)[C@@H]12` [MELAMPODIN A], the ID50 worked out at 1.14 µmol and the inhibition entry is “Dose-dependent effect”.

In the case of `C=C1C(=O)O[C@@H]2/C=C(\C)CC/C=C(/C(=O)OC)[C@H](O)[C@@H](OC(=O)[C@]3(C)O[C@@H]3C)[C@@H]12`, the ID50 turned out to be 1.15 µmol and the inhibition entry is “Dose-dependent effect”.

For `COc1ccc2c(c1)c(CC(=O)O)c(C)n2C(=O)c1ccc(Cl)cc1` [INDOMETHACIN], the ID50 was found to be 0.24 µmol.

On to `C=C1C(=O)O[C@@H]2/C=C(\C)CC/C=C(/C(=O)OC)[C@H](O)[C@@H](OC(=O)/C(C)=C\C)[C@@H]12`, for which the ID50 is 0.56 µmol and the inhibition result was “Dose-dependent effect”.

Turning to `CC(C)=CC(=O)C[C@@]12O[C@@H]1CC[C@]1(C)O[C@](C)(C(O)CO)CC[C@@H]1OC2=O` (some centres not stated), the ID50 came out at 1.49 µmol and the inhibition entry is “Dose-dependent effect”.
